Where two headings read alike, the source gives them in different places.

Data on five molecules can be found in US12043600B2, “Microbiocidal compounds” (SYNGENTA CROP PROTECTION AG, priority 2018, dated 2024).

One data set relates to Plasmopara viticola. Nature of the data set: whole plant or invertebrate. As to conditions: foliar, read-out: control of Plasmopara viticola. The format is in vivo.
A further data set concerns Pythium ultimum. Nature of the data set: Pythium ultimum/Liquid Culture (Seedling Damping Off). The settings on record: Globisporangium ultimum, liquid culture, compared to untreated control. It counts as cell-based. The procedure:
Mycelia fragments and oospores of a newly grown liquid culture of the fungus are directly mixed into nutrient broth (PDB potato dextrose broth). After placing a (DMSO) solution of test compound into a microtiter plate (96-well format), the nutrient broth containing the fungal mycelia/spore mixture is added.

For data set [1], the system named is Puccinia recondita f. sp. tritici. In words: Puccinia recondita f. sp. tritici/Wheat/Leaf Disc Curative (Brown Rust). The format is in vivo. As to conditions: foliar, wheat leaf disc curative, compared to untreated control. The method in brief: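 Formulated compound, diluted in water, is applied to inoculated wheat cv. Kanzler leaf segments on agar one day post-inoculation (pre-incubation dark, 19° C, 75% rh). After 6-8 days at 19° C, 75% rh and 12 h/12 h light, activity is rated as percent disease control relative to untreated segments.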

Data set [2] has as its system Mycosphaerella graminicola (Septoria tritici). In words: Mycosphaerella graminicola (Septoria tritici)/Liquid Culture (Septoria Blotch). The format is cell-based. As to conditions: Zymoseptoria tritici; 20 ppm; liquid culture; compared to untreated control. An outline of the steps:
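Results given as % disease control: test compound in DMSO was placed in wells first, then potato dextrose broth carrying cryostored fungal conidia was added.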

Data set [3] concerns Puccinia recondita f. sp. tritici. In words: Puccinia recondita f. sp. tritici/Wheat/Leaf Disc Preventative (Brown Rust). It counts as in vivo. As to conditions: foliar, 200 ppm, wheat leaf disc preventative, compared to untreated control, read-out: control of Puccinia recondita f. sp. tritici.
The next data set relates to Phytophthora infestans. In words: whole plant or invertebrate. The format is in vivo. As to conditions: in Solanum lycopersicum, foliar, read-out: control of Phytophthora infestans.
Data set [4] concerns Mycosphaerella arachidis (Cercospora arachidicola). Nature of the data set: Mycosphaerella arachidis (Cercospora arachidicola)/Liquid Culture (Early Leaf Spot). It counts as cell-based. The settings on record: liquid culture, compared to untreated control. An outline of the steps: (§1)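 Growth inhibition read in liquid culture: spores from frozen stocks, suspended in potato dextrose broth, meet DMSO-dissolved compound placed beforehand in the plate.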

A further data set deals with Alternaria solani. In words: Alternaria solani/Tomato/Leaf Disc (Early Blight). The format is in vivo. As to conditions: foliar, tomato leaf disc, compared to untreated control. An outline of the steps:
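Protective leaf-disc test: compound sprayed onto tomato cv. Baby disks, spore inoculation following after 2 days. Disks kept at 80% rh, 12/12 h light/dark, 23° C. day and 21° C. night; activity read as percent disease control relative to untreated checks 5-7 days post-application.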

Data set [5] has as its system Glomerella lagenarium (Colletotrichum lagenarium). Nature of the data set: Glomerella lagenarium (Colletotrichum lagenarium)/Liquid Culture (Anthracnose). The settings on record: Colletotrichum orbiculare, liquid culture, compared to untreated control. It counts as cell-based.
The subject of data set [6] is Monographella nivalis (Microdochium nivale). Nature of the data set: Monographella nivalis (Microdochium nivale)/Liquid Culture (Foot Rot Cereals). It counts as cell-based. The settings on record: liquid culture, compared to untreated control. The method in brief: as §1
The test system of data set [7] is Magnaporthe grisea (Pyricularia oryzae). In words: whole plant or invertebrate. The format is in vivo. As to conditions: foliar, read-out: control of Magnaporthe grisea.
Data set [8] deals with Phaeosphaeria nodorum (Septoria nodorum). In words: Phaeosphaeria nodorum (Septoria nodorum)/Wheat/Leaf Disc Preventative (Glume Blotch). The format is in vivo. The settings on record: Parastagonospora nodorum, foliar, wheat leaf disc preventative, compared to untreated control. The method in brief:
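Preventative test: compound spray first, then spore inoculation after 2 days on cv. Kanzler wheat leaf segments. Incubation in a climate cabinet at 20 °C and 75% rh under a 12 h light/12 h dark cycle. Activity rated as % control relative to untreated discs at 5–7 days post-application.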

Data set [9] concerns Blumeria graminis f. sp. tritici (Erysiphe graminis f. sp. tritici). Nature of the data set: Blumeria graminis f. sp. tritici/Wheat/Leaf Disc Preventative (Powdery Mildew on Wheat). As to conditions: foliar, wheat leaf disc preventative, compared to untreated control. The format is in vivo. An outline of the steps:
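Preventative leaf-disc test: percent disease control versus untreated leaf segments read 6-8 days post-application. Compound spray applied to wheat cv. Kanzler segments on agar one day before shaking infected plants over them; incubation at 20° C and 60% rh, 24 h darkness then 12 h light/12 h dark cycles.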

In another data set the test system is Sclerotinia sclerotiorum. Nature of the data set: Sclerotinia sclerotiorum/Liquid Culture (Cottony Rot). The format is cell-based. As to conditions: liquid culture, compared to untreated control. The procedure: Mycelia fragments of a newly grown liquid culture of the fungus are directly mixed into nutrient broth (PDB potato dextrose broth). After placing a (DMSO) solution of test compound into a microtiter plate (96-well format) the nutrient broth containing the fungal material is added.

The nature of data set [10]: Photostability assay (Atlas Suntest). The format is physicochemical. The settings on record: Suntest 750 W/m^2, spotted on microscope slides. The method in brief: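 Compound (2 μl of 1 g/L methanol stock) spotted on glass slides and irradiated at 750 W/m^2 in a Suntest. Slides were washed with H2O:MeCN:THF 50:40:10 and analysed by reverse-phase UPLC-PDA; peak area versus initial gave % parent remaining at 3 hours.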

Data set [11] concerns Thanatephorus cucumeris (Rhizoctonia solani). In words: Thanatephorus cucumeris (Rhizoctonia solani)/Liquid Culture (Foot Rot, Damping-Off). The format is cell-based. The settings on record: liquid culture, compared to untreated control. The procedure: Mycelia fragments of a newly grown liquid culture of the fungus are directly mixed into nutrient broth (PDB potato dextrose broth). After placing a (DMSO) solution of the test compounds into a microtiter plate (96-well format), the nutrient broth containing the fungal material is added.

Data set [12] has as its system Botryotinia fuckeliana (Botrytis cinerea). Nature of the data set: Botryotinia fuckeliana (Botrytis cinerea)/Liquid Culture (Gray Mould). It counts as cell-based. As to conditions: liquid culture, compared to untreated control. The procedure:
Conidia of the fungus from cryogenic storage are directly mixed into nutrient broth (Vogels broth). After placing a (DMSO) solution of test compound into a microtiter plate (96-well format), the nutrient broth containing the fungal spores is added.

Another data set relates to Phakopsora pachyrhizi. Nature of the data set: Phakopsora pachyrhizi/Soybean/Preventative (Soybean Rust). It counts as in vivo. As to conditions: 288 h.
[13] abbreviates: foliar, soybean leaf disc preventative, compared to untreated control, read-out: control of Phakopsora pachyrhizi.

As usually defined, the inhibition of growth is the drop in the measured response relative to a control, in per cent. In general, melting point refers to the temperature, or range, at which the solid turns liquid. For the molecule `CO/C=C(\Oc1cc(-n2ccc(C(C)C)n2)cc(OC)c1C)C(=O)OC` [Compound E-21, methyl (Z)-2-[5-(3-isopropylpyrazol-1-yl)-3-methoxy-2-methyl-phenoxy]-3-methoxy-prop-2-enoate], the melting point was 90 to 92 °C. For the same molecule, the pest or weed control at 200 ppm in the data set on Plasmopara viticola is at least 80%. In the data set with Pythium ultimum, this molecule came in with an inhibition of growth at 20 ppm of at least 80%. In addition, the pest or weed control at 200 ppm in data set [1] was at least 80%. This molecule also gave an inhibition of growth at 20 ppm in data set [2] of at least 80%. For the same molecule, in data set [3], the pest or weed control at 200 ppm is at least 80%. In addition, the pest or weed control at 200 ppm with Phytophthora infestans is at least 80%. Moreover, the inhibition of growth at 20 ppm in data set [4] was at least 80%. Further, the pest or weed control at 200 ppm with Alternaria solani was at least 80%. In data set [5], this molecule showed an inhibition of growth at 20 ppm of at least 80%. In data set [6], the inhibition of growth at 20 ppm was at least 80%.
Molecule `CO/C=C(\Oc1cc(-n2ccc(C(C)(F)F)n2)ccc1C)C(=O)OC` [Compound E-68, methyl (Z)-2-[5-[3-(1,1-difluoroethyl)pyrazol-1-yl]-2-methyl-phenoxy]-3-methoxy-prop-2-enoate] returned a melting point of 119 to 121 °C. Also, in data set [7], the pest or weed control at 200 ppm was at least 80%. In [8], this molecule registered a pest or weed control at 200 ppm of at least 80%. In addition, the pest or weed control at 200 ppm in [9] was at least 80%. Also, the inhibition of growth at 20 ppm with Sclerotinia sclerotiorum is at least 80%. In data set [10], the “% Parent Remaining @ 3 hrs” value is 40%. In addition, the inhibition of growth at 20 ppm in [11] is at least 80%. Further, the pest or weed control at 200 ppm in the data set on Plasmopara viticola is at least 80%. The molecule also yielded an inhibition of growth at 20 ppm in the data set on Pythium ultimum of at least 80%. In [1], this molecule yielded a pest or weed control at 200 ppm of at least 80%. Moreover, the inhibition of growth at 20 ppm in [2] is at least 80%. The pest or weed control at 200 ppm in data set [3] was at least 80%. In data set [4], the inhibition of growth at 20 ppm was at least 80%. Further, the pest or weed control at 200 ppm in the data set on Alternaria solani is at least 80%. For the same molecule, in [5], the inhibition of growth at 20 ppm was at least 80%. The inhibition of growth at 20 ppm in data set [6] was at least 80%.
In the case of `CO/C=C(\Oc1cc(-n2cc(C3CCC3)cn2)ccc1C)C(=O)OC` [Compound E-80, methyl (Z)-2-[5-(4-cyclobutylpyrazol-1-yl)-2-methyl-phenoxy]-3-methoxy-prop-2-enoate], the pest or weed control at 200 ppm (in data set [7]; in data set [9]; in the data set with Plasmopara viticola; in data set [1]; in [3]; with Phytophthora infestans) was at least 80% each time. In addition, the pest or weed control at 200 ppm with Phakopsora pachyrhizi (setting [13]) was at least 50%; in the data set on Alternaria solani it was at least 80%. In addition, the inhibition of growth at 20 ppm (with Pythium ultimum; in data set [2]; in data set [12]; in data set [4]; in data set [5]; in [6]) was at least 80% throughout.
For the molecule `CO/C=C(\Oc1cc(-n2ccc(C(C)C)n2)ccc1C)C(=O)OC` [Compound E-92, methyl (Z)-2-[5-(3-isopropylpyrazol-1-yl)-2-methyl-phenoxy]-3-methoxy-prop-2-enoate], the melting point was in the range of 88 to 91 °C. In addition, in [7], the pest or weed control at 200 ppm is at least 80%. Besides, the pest or weed control at 200 ppm in data set [8] is at least 80%. For the same molecule, the pest or weed control at 200 ppm in data set [9] was at least 80%. Moreover, in data set [10], the “% Parent Remaining @ 3 hrs” value came to 33%. Further, the pest or weed control at 200 ppm in the data set with Plasmopara viticola is at least 80%. In the data set with Pythium ultimum, the inhibition of growth at 20 ppm was at least 80%. The same molecule registered an inhibition of growth at 20 ppm in [2] of at least 80%. In [12], the inhibition of growth at 20 ppm is at least 80%. Besides, the pest or weed control at 200 ppm in the data set on Phytophthora infestans is at least 80%. Further, the inhibition of growth at 20 ppm in [4] was at least 80%. The same molecule registered a pest or weed control at 0.6 ppm in the data set with Phakopsora pachyrhizi (Phakopsora pachyrhizi (Soybean rust), 0.6 ppm) of 0%. The same molecule had a pest or weed control at 2 ppm in the data set with Phakopsora pachyrhizi (Phakopsora pachyrhizi (Soybean rust), 2 ppm) of 0%. For the same molecule, the pest or weed control at 6 ppm in the data set with Phakopsora pachyrhizi (Phakopsora pachyrhizi (Soybean rust), 6 ppm) amounted to 35%. The molecule also showed a pest or weed control at 20 ppm with Phakopsora pachyrhizi (Phakopsora pachyrhizi (Soybean rust), 20 ppm) of 90%. The molecule also gave a pest or weed control at 60 ppm with Phakopsora pachyrhizi (Phakopsora pachyrhizi (Soybean rust), 60 ppm) of 100%. Moreover, the pest or weed control at 200 ppm in the data set with Phakopsora pachyrhizi (Phakopsora pachyrhizi (Soybean rust), read-out: control (%)) is 100%. The inhibition of growth at 20 ppm in data set [5] is at least 80%. The inhibition of growth at 20 ppm in data set [6] was at least 80%.
For `CO/C=C(\Oc1cc(-n2ccc(C(C)(C)C)n2)ccc1C)C(=O)OC` [Compound E-103, methyl (Z)-2-[5-(3-tert-butylpyrazol-1-yl)-2-methyl-phenoxy]-3-methoxy-prop-2-enoate], the pest or weed control at 200 ppm (in [7]; in data set [8]; in data set [9]; with Plasmopara viticola; in [1]; in data set [3]) was at least 80% each time. The results for the pest or weed control at 200 ppm with Phytophthora infestans and with Phakopsora pachyrhizi (setting [13]) were at least 80% and at least 50%, respectively. Moreover, the inhibition of growth at 20 ppm (in the data set with Pythium ultimum; in [2]; in data set [12]; in data set [4]; in data set [5]; in data set [6]) was at least 80% throughout.
